Test results: patent publication US20040055092A1, “Use of percarbamic acids and diacyl percarbamates and precursors therefor” (priority 2000, published 2004)

Assays:
E. Coli = E. Coli cultures exposed 45 minutes at 37° C., plate counts; type: cell-based; conditions: peroxide 5 g/l and/or ASP 1 3 g/l; for Counts recorded: 45 minutes at 37° C., controls 40×10^8 (time zero), 37×10^8 (45 minutes), average of three; for reduction in bacteria count / kill: 45 minutes treatment at 37° C.
Description: Cultures of E. Coli in Ringer's saline were exposed to various conditions for 45 minutes at 37° C. These were then serially diluted (eight 10-fold dilutions) and plated onto nutrient agar (treatments were done in triplicate to ensure reproducibility), and five tests were done overall as shown below. Initial E. Coli concentration was approximately 5×10^9/ml and cultures were grown in nutrient broth overnight before being centrifuged and then re-suspended in saline. A E. Coli control-time zero. B E. Coli control-time 45 minutes C E. Coli plus peroxide at 5 g/l for 45 minutes D E. Coli plus […] at 3 g/l for 45 minutes E E. Coli plus peroxide of 5 g/l plus […] (3 g/l) for 45 minutes Plates were observed and counted after 2 days incubation at 37° C.

[1] = Bleaching of dye solutions (degree of dye removal); conditions: activator 2 g/l
Description: The bleaching solution was prepared as follows: […] Bleach activator 2 g/l […] Total volume 25 ml pH 3 was obtained with acetic acid; pH 7 was obtained with sodium dihydrogen phosphate (0.1M) and sodium hydroxide (0.1M); pH 10 was obtained using sodium carbonate. […] The degree of dye removal or bleaching (R %) was calculated using the following equation: % R=1-(A2/A1)×100 […]

SMILES | Counts recorded (E. Coli) | reduction in bacteria count / kill (E. Coli) | degree of dye removal % R ([1]; pH 3, 20° C., 3 hours) [%] | degree of dye removal % R ([1]; pH 3, 20° C., 24 hours) [%] | degree of dye removal % R ([1]; pH 7, 20 C., 3 hours) [%] | degree of dye removal % R ([1]; pH 7, 20 C., 24 hours) [%] | degree of dye removal % R ([1]; pH 10, 20°C., 3 hours) [%] | degree of dye removal % R ([1]; pH 10, 20°C., 24 hours) [%]
NC(=O)S(=O)(=O)O [ASP 1] | 7.9×10^8 colony forming units ml^−1 | about 80% |  |  |  |  |  | 
OO [H2O2, Hydrogen peroxide] | 12.9×10^8 colony forming units ml^−1 | ~66% | 3.3 | 85 | 2.7 | 7.1 | 11.3 | 24.8
